{
  "source": "patent US9556492B2",
  "about": "“Corn plant MON88017 and compositions and methods for detection thereof” (Monsanto Technology LLC, priority 2003, dated 2017)",
  "tested_on": "corn rootworm larvae",
  "test": "corn rootworm feeding damage field screen, root damage rated on the Node-Injury Scale",
  "format": "in vivo, Diabrotica spp.",
  "settings": "Node-Injury Scale 0-3; insecticide treated non-insecticidal protein containing corn plants; 5 ounces per 1000 feet of row; artificially infested plots",
  "method": "Transgenic corn plants were assayed for corn rootworm resistance to feeding damage by greenhouse and field screens. Root damage was rated using the Node-Injury Scale (NIS) developed by Oleson and Tollefson of Iowa State University, this scale rates damage done to corn roots using 0-3 values. The 0.00 value describes no feeding damage and is the lowest rating, 1.00 describes one node or the equivalent of an entire node eaten back to within approximately two inches of the stalk, 2.00 describes two complete nodes eaten, and 3.00 describes three or more nodes eaten and is the highest rating. Damage in between complete nodes eaten is noted as the percentage of the node missing, i.e., 1.50 describes 1½ nodes eaten, 0.25 describes ¼ of one node eaten. Field plots were artificially infested with corn rootworm larvae by applying 1500-2000 eggs per linear foot of row at the V3-V4 growth stage. Insecticide treated rows were treated with Tefluthrin insecticide (Force® 3G, Zeneca Ag Products) at a rate of 5 ounces per 1000 feet of row.",
  "data": [
    {"smiles": "Cc1c(F)c(F)c(COC(=O)[C@@H]2[C@H](/C=C(\\Cl)C(F)(F)F)C2(C)C)c(F)c1F", "note": "(racemic) [Tefluthrin]", "values": [
      {"measurement": "average RDR", "result": 0.44}
    ]}
  ]
}
